Experimental findings from article PMC5647113 (Circulation. Arrhythmia and electrophysiology, 2017) are described below.

The structures appear in SMILES notation.

In one assay the target is hERG (KV11.1) (Homo sapiens, UniProt Q12809). Nature of the assay: automated patch clamp. The assay is classed as cell-based. Background: The patch-clamp technique gives a direct electrical read-out from membranes.
For the next assay, the target named is hSK3 (KCa2.3) (Homo sapiens, UniProt Q9UGI6). Nature of the assay: automated whole-cell patch clamp. The assay is classed as cell-based.
hSK3 (KCa2.3), sequence (Q9UGI6 whole entry): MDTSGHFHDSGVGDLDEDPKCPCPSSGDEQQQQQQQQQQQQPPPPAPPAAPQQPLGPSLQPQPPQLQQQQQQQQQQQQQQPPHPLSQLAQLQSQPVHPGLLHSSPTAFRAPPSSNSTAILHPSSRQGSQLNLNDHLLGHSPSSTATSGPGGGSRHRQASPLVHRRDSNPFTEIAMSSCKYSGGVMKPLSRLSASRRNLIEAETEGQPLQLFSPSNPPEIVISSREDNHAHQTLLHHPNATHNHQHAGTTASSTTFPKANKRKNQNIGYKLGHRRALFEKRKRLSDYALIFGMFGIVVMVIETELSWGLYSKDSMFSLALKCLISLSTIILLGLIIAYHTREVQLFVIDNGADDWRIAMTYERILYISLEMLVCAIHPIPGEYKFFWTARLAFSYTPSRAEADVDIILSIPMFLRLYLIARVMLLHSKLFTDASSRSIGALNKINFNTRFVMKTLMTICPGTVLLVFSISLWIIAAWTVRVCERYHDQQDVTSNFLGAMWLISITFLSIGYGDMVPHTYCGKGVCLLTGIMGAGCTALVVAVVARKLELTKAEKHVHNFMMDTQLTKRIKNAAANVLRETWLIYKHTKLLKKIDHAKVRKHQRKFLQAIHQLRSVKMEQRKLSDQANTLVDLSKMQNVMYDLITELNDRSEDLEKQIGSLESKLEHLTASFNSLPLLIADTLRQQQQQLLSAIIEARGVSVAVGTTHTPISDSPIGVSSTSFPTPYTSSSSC

hERG (KV11.1), sequence (Q12809 whole entry): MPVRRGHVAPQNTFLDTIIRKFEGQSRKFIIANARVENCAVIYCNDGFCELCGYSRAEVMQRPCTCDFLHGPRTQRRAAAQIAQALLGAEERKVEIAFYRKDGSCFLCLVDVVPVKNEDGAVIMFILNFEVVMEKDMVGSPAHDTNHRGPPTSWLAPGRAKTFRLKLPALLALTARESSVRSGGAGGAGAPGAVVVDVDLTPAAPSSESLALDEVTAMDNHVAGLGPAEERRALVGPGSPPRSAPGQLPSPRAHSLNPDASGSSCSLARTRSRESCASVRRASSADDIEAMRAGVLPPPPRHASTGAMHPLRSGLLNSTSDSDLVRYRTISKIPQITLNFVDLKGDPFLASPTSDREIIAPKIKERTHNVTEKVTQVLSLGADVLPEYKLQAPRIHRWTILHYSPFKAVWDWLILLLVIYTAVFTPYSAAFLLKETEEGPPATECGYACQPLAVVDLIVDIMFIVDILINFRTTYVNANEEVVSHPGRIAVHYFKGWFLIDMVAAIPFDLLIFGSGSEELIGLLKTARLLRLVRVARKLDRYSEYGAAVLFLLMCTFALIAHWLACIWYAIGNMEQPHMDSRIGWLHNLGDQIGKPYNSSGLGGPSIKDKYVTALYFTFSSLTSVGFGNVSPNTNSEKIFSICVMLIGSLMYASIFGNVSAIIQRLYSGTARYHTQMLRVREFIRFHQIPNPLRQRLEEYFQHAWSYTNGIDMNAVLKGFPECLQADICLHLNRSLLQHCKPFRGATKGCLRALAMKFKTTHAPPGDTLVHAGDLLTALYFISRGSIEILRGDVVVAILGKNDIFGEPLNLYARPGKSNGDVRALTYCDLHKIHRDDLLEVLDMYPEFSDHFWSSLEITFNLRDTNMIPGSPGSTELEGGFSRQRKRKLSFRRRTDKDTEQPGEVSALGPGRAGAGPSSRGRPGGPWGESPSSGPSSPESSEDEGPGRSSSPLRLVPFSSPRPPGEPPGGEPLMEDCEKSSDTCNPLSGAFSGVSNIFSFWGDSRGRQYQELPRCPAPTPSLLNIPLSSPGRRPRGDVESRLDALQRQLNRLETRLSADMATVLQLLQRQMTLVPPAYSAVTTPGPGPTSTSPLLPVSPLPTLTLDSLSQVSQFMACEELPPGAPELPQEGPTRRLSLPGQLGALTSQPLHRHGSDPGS

Take `CC(=O)Nc1cccc2[nH]c(N[C@H](C)c3cccc(C(F)(F)F)c3)nc12` [AP14145, N-(2-{[(1R)-1-[3-(trifluoromethyl)phenyl]ethyl]amino}-1H-1,3-benzodiazol-4-yl)acetamide]: the IC50 (commonly the concentration that gives 50% inhibition) at hERG (KV11.1) was found to be 71.8 ± 0.5 µM; on hSK3 (KCa2.3), 1.3 ± 0.4 µM.
